Measured values reported in paper PMC3935456 (Journal of biomolecular screening, 2011).

Columns and labels:
LIM kinase 1 (LIMK1) [1] = molecular target: T1, LIM kinase 1 (LIMK1) (Homo sapiens, UniProt P53667); experiment: apparent Km determination in luciferase ATP-depletion kinase assay with cofilin; assay type: biochemical
LIM kinase 1 (LIMK1) [2] = molecular target: T1, LIM kinase 1 (LIMK1); experiment: Kinase Glo luciferase ATP-depletion assay with recombinant cofilin, […] ATP; assay type: biochemical

T1 sequence (P53667 339-604 limits assumed): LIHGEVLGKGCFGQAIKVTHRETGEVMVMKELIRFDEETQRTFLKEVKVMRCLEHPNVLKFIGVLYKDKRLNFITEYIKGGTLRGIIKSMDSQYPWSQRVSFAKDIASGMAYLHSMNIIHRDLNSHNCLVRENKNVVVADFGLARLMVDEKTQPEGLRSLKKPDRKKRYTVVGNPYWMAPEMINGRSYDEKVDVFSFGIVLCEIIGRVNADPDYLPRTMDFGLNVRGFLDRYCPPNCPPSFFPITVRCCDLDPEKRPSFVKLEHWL

Compound | Km (LIM kinase 1 (LIMK1) [1]) [µM] | IC50 (LIM kinase 1 (LIMK1) [2]) [nM]
Nc1ncnc2c1ncn2[C@@H]1O[C@H](COP(=O)(O)OP(=O)(O)OP(=O)(O)O)[C@@H](O)[C@H]1O [ATP] | 10 to 20 | –
COc1c(C=O)c(O)cc2c1C(=O)c1ccccc1C2=O [damnacanthal] | – | 19
